From patent US20230393140A1, “BINDING ASSAYS INVOLVING A PLURALITY OF SYNTHETIC COMPOUNDS, TARGETS, AND COUNTER TARGETS” (SRI International, priority 2020, published 2023)
Read-outs that look alike come from different tables or passages of the source. Each block holds one molecule with its values, some of them ahead of it. Numbered stars: 1 amine (or outer) side, 2 acyl side, 3 side chain; on linkers, the order of the positions; unused ones are H or OH. Square brackets hold non-standard residues; d marks the D form. Peptide text beside a SMILES is read from it. * marks the point of attachment. 5FAM = O=C1OC2(c3ccc(O)cc3Oc3cc(O)ccc32)c2ccc(C(=O)*)cc21; NHCH2C6H4(4-CH2CONH2) = NC(=O)Cc1ccc(CN*)cc1; X1 = O=C(Cc1ccc(CN[*:1])cc1)[*:2]

Columns and labels:
cRaf/K-Ras (G12V) PPI = target: T1, cRaf/K-Ras (G12V) PPI (Homo sapiens, UniProt P01116, G12V); assay: K-Ras-cRaf HTRF-based PPI profiling; format: biochemical; settings: for blank corrected HTRF: raw data; for % Binding: relative to DMSO controls;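 as to blank corrected HTRF: background is the signal of wells with all components except cRaf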
T1 construct: b-Kras G12V (GppNHp) (aa 2-169); biotin (b-
Procedure: In some experimental embodiments, a buffer was added to the assay wells which included […] HEPES pH 7.4, 150 mM NaCl, 5 mM MgCl2, 1 mM DTT, 0.005% NP40, and 1% DMSO. 5 uL of 3×K-Ras protein was then added to the assay wells, followed by the synthetic compounds which were added using acoustic technology (ECHO, Labcyte) followed by thirty minutes incubation at room temperature. Afterwards, 5 uL of 3×cRaf protein was added to the assay wells and 5 uL of detection mix was then added to the assay wells after 30 minutes. The detection mix included Mab anti-GST-Tb cryptate (Cisbio 61GSTTLB) and streptavidin-XL665 (Ex/Em=(337/665; 620) in PHERAstar (BMG Labtech)). HTRF signal was measured […] later.
The data includes raw data (signal-background without cRaf protein but with all other component), % binding (relative to DMSO controls), and curve fits. Curve fits were performed when the activities at the highest concentration of the synthetic compounds were less than 65%. Tables 18A-18B below includes the raw data (e.g., blank corrected HTRF) and Tables 19A-19B includes the % binding.

K-Ras = target: T2, K-Ras (Homo sapiens, UniProt P01116, G12V); assay: MST binding affinity of resynthesized NNP hits to K-Ras; settings: read-out: KD (nM) [95% conf. int]; MST; NNP1 library hit; target K-Ras; one-site binding model
T2 construct: purchased Cytoskeleton Inc. CS-RS04
Procedure: Loading was performed according to the following protocol: The 200 μM stock solution of the target protein was diluted to 10 μM in 20 mM HEPES pH 8.0, 150 mM NaCl, 10 mM MgCl2, 1 mM TCEP, 0.05% Tween-20 (total volume 110 μL). 10 μL were set aside for later labeling quality control. EDTA pH 8.0 (stock concentration 10 mM) was added to the protein solution to a final concentration of 80 μM. GTP (stock concentration 50 mM) was added to the protein solution to a final concentration of 750 μM. The solution was incubated at 30° C. for 2 hours (PCR tube) and then placed on ice for 2 minutes. MgCl2 was added to the protein solution to a final concentration of 100 mM. The resulting protein solution was buffer exchanged into the buffer required in the labeling kit for labeling. […] All the other target molecules (TNFα, IL-6, IL-6R and ASGPR) were used as received without any additional treatment.
Hit binding affinity to various targets were determined using Microscale Thermophoresis (MST). MST experiments were performed on a Monolith NT.115pico (NanoTemper Technologies GmbH, Munich, Germany). Measurements were performed at room temperature, in triplicate with incubation periods of 15, 30 and 45 minutes. […] Targets were labeled using Nanotemper Monolith 2nd Generation Protein Labeling Kits. RED-MALEIMIDE (Maleimide-647-dye) labeling kit was used for K-Ras and RED-NHS (NHS-647-dye) labeling kit was used for IL-6, IL-6R, TNFα and ASGPR. The buffer for the ASGPR contained 20 mM HEPES pH 7.4, 150 mM NaCl, 10 mM MgCl2, 2 mM CaCl2, 0.05% Pluronic F-127, and 1 mM DTT; for IL-6 contained 20 mM HEPES pH 7.4, 150 mM KCl, 10 mM MgCl2, and 0.1% Pluronic F-127; for the soluble IL-6 receptor 20 mM HEPES pH 7.4, 150 mM NaCl, 10 mM MgCl2, and 0.05% Tween-20; for K-Ras 20 mM HEPES pH 7.4, 150 mM NaCl, 10 mM MgCl2, 0.05% Tween-20 and 1 mM DTT; for TNFα 10 mM HEPES pH 7.4, 150 mM NaCl, 10 mM MgCl2, 0.05% Polysorbate-20. Triplicate data was analyzed using MO.AffinityAnalysis software (NanoTemper Technologies GmbH).

IC50 (cRaf/K-Ras (G12V) PPI; 1% DMSO in reaction, compounds without fluorescein, 30 nM K-Ras G12V, 10 nM GST-cRaf, 30 min pre-incubation, read-out: K-Ras G12V Compound IC50): 1600 nM | IC50 (cRaf/K-Ras (G12V) PPI; 10-concentration IC50 mode, 3-fold serial dilution, K-Ras G12V 30 nM, GST-cRaf 10 nM, read-out: IC50): 1600 nM | HillSlope (cRaf/K-Ras (G12V) PPI; curve fit of % binding, K-Ras G12V 30 nM, GST-cRaf 10 nM): −0.5508 | blank corrected HTRF (cRaf/K-Ras (G12V) PPI; conc. 1.67E−05): 2409 | blank corrected HTRF (cRaf/K-Ras (G12V) PPI; conc. 1.85E−06): 6562 | blank corrected HTRF (cRaf/K-Ras (G12V) PPI; conc. 2.06E−07): 10050 | blank corrected HTRF (cRaf/K-Ras (G12V) PPI; conc. 2.29E−08): 12784 | blank corrected HTRF (cRaf/K-Ras (G12V) PPI; conc. 2.54E−09): 13013 | blank corrected HTRF (cRaf/K-Ras (G12V) PPI; conc. 5.00E−05): 2344 | blank corrected HTRF (cRaf/K-Ras (G12V) PPI; conc. 5.56E−06): 4849 | blank corrected HTRF (cRaf/K-Ras (G12V) PPI; conc. 6.17E−07): 8628 | blank corrected HTRF (cRaf/K-Ras (G12V) PPI; conc. 6.86E−08): 11886 | blank corrected HTRF (cRaf/K-Ras (G12V) PPI; conc. 7.62E−09): 13422 | % Binding (cRaf/K-Ras (G12V) PPI; conc. 1.67E−05): 17.36% | % Binding (cRaf/K-Ras (G12V) PPI; conc. 1.85E−06): 47.29% | % Binding (cRaf/K-Ras (G12V) PPI; conc. 2.06E−07): 72.42% | % Binding (cRaf/K-Ras (G12V) PPI; conc. 2.29E−08): 92.13% | % Binding (cRaf/K-Ras (G12V) PPI; conc. 2.54E−09): 93.78% | % Binding (cRaf/K-Ras (G12V) PPI; conc. 5.00E−05): 16.9% | % Binding (cRaf/K-Ras (G12V) PPI; conc. 5.56E−06): 34.94% | % Binding (cRaf/K-Ras (G12V) PPI; conc. 6.17E−07): 62.18% | % Binding (cRaf/K-Ras (G12V) PPI; conc. 6.86E−08): 85.66% | % Binding (cRaf/K-Ras (G12V) PPI; conc. 7.62E−09): 96.73%
SMILES: Cn1cnc(Cn2ccc3ccc(CNCc4[nH]c5ccccc5c4[C@H]4NC(=O)c5ccc(O)cc54)cc32)c1 [BI-2852, reference compound]

SMILES: CC(C)[C@H](NC(=O)[C@@H](Cc1ccc(O)cc1)NC(=O)[C@@H](Cc1c[nH]cn1)NC(=O)[C@H]1CCCN1C(=O)[C@@H](Cc1c[nH]c2ccccc12)NC(=O)c1ccc2c(c1)C(=O)OC21c2ccc(O)cc2Oc2cc(O)ccc21)C(=O)NCc1ccc(CC(=O)NCC(=O)N[C@@H](C(=O)N2CCC[C@@H]2C(=O)N[C@H](CCCNC(=N)N)C(=O)N[C@@H](C)C(=O)NCc2ccc(CC(=O)N3CCC[C@@H]3C(=O)N[C@H](CO)C(=O)N[C@H](CCC(=O)O)C(=O)N[C@H](CCCNC(=N)N)C(=O)NCC(=O)NCc3ccc(CC(=O)N4CCC[C@@H]4C(=O)N[C@H](CCCCN)C(=O)N[C@H](Cc4ccc(O)cc4)C(=O)N[C@H](CCCNC(=N)N)C(=O)N[C@@H](Cc4ccccc4)C(=O)NCc4ccc(CC(=O)N5CCC[C@@H]5C(=O)NCC(=O)N[C@H](CCCNC(=N)N)C(=O)N[C@H](Cc5c[nH]c6ccccc56)C(=O)NCC(=O)NCc5ccc(CC(=O)N[C@H](Cc6ccc(O)cc6)C(=O)N6CCC[C@@H]6C(=O)N[C@H](CCCNC(=N)N)C(=O)N[C@H](CCC(=O)O)C(=O)NCC(=O)NCc6ccc(CC(N)=O)cc6)cc5)cc4)cc3)cc2)C(C)C)cc1 [KRAS-1-2] (5FAM-[dW][dP][dH][dY]V[X1]G[dV][dP][dR]A[X1][dP][dS][dE][dR]G[X1][dP][dK][dY][dR]F[X1][dP]G[dR][dW]G[X1][dY][dP][dR][dE]G-{NHCH2C6H4(4-CH2CONH2)})
Kd (K-Ras): 49 nM

SMILES: CC(C)C[C@@H](NC(=O)c1ccc2c(c1)C(=O)OC21c2ccc(O)cc2Oc2cc(O)ccc21)C(=O)N1CCC[C@@H]1C(=O)N[C@H](CCC(=O)O)C(=O)N[C@H](CO)C(=O)N[C@@H](Cc1ccccc1)C(=O)NCc1ccc(CC(=O)NCC(=O)N[C@@H](C(=O)N2CCC[C@@H]2C(=O)N[C@H](CCCNC(=N)N)C(=O)N[C@@H](C)C(=O)NCc2ccc(CC(=O)N3CCC[C@@H]3C(=O)N[C@H](CO)C(=O)N[C@H](CCC(=O)O)C(=O)N[C@H](CCCNC(=N)N)C(=O)NCC(=O)NCc3ccc(CC(=O)N4CCC[C@@H]4C(=O)N[C@H](CCCCN)C(=O)N[C@H](Cc4ccc(O)cc4)C(=O)N[C@H](CCCNC(=N)N)C(=O)N[C@@H](Cc4ccccc4)C(=O)NCc4ccc(CC(=O)N[C@H](CCCNC(=N)N)C(=O)N[C@H](Cc5ccc(O)cc5)C(=O)N[C@@H](C(=O)N[C@H](CCC(=O)O)C(=O)N[C@@H](C)C(=O)NCc5ccc(CC(=O)NCC(=O)N[C@H](Cc6c[nH]c7ccccc67)C(=O)N[C@H](Cc6c[nH]cn6)C(=O)N[C@H](CCCNC(=N)N)C(=O)N[C@@H](C)C(=O)NCc6ccc(CC(N)=O)cc6)cc5)[C@H](C)O)cc4)cc3)cc2)C(C)C)cc1 [KRAS-1-3] (5FAM-[dL][dP][dE][dS]F[X1]G[dV][dP][dR]A[X1][dP][dS][dE][dR]G[X1][dP][dK][dY][dR]F[X1][dR][dY][dT][dE]A[X1]G[dW][dH][dR]A-{NHCH2C6H4(4-CH2CONH2)})
Kd (K-Ras): 18 nM

SMILES: CC(C)[C@H](NC(=O)[C@@H](Cc1ccc(O)cc1)NC(=O)[C@@H](Cc1c[nH]cn1)NC(=O)[C@H]1CCCN1C(=O)[C@@H](Cc1c[nH]c2ccccc12)NC(=O)c1ccc2c(c1)C(=O)OC21c2ccc(O)cc2Oc2cc(O)ccc21)C(=O)NCc1ccc(CC(=O)N2CCC[C@@H]2C(=O)N[C@H](CO)C(=O)NCC(=O)N[C@H](CO)C(=O)N[C@@H](C)C(=O)NCc2ccc(CC(=O)N3CCC[C@@H]3C(=O)N[C@H](CO)C(=O)N[C@H](CCC(=O)O)C(=O)N[C@H](CCCNC(=N)N)C(=O)NCC(=O)NCc3ccc(CC(=O)N4CCC[C@@H]4C(=O)N[C@H](CCCCN)C(=O)N[C@H](Cc4ccc(O)cc4)C(=O)N[C@H](CCCNC(=N)N)C(=O)N[C@@H](Cc4ccccc4)C(=O)NCc4ccc(CC(=O)N5CCC[C@@H]5C(=O)NCC(=O)N[C@H](CCCNC(=N)N)C(=O)N[C@H](Cc5c[nH]c6ccccc56)C(=O)NCC(=O)NCc5ccc(CC(=O)N[C@H](Cc6ccc(O)cc6)C(=O)N6CCC[C@@H]6C(=O)N[C@H](CCCNC(=N)N)C(=O)N[C@H](CCC(=O)O)C(=O)NCC(=O)NCc6ccc(CC(N)=O)cc6)cc5)cc4)cc3)cc2)cc1 [KRAS-1-5] (5FAM-[dW][dP][dH][dY]V[X1][dP][dS]G[dS]A[X1][dP][dS][dE][dR]G[X1][dP][dK][dY][dR]F[X1][dP]G[dR][dW]G[X1][dY][dP][dR][dE]G-{NHCH2C6H4(4-CH2CONH2)})
Kd (K-Ras): 75 nM

SMILES: CC(C)C[C@H](NC(=O)[C@@H](CCC(=O)O)NC(=O)[C@H](NC(=O)[C@H]1CCCN1C(=O)[C@@H](CCC(=O)O)NC(=O)c1ccc2c(c1)C(=O)OC21c2ccc(O)cc2Oc2cc(O)ccc21)[C@H](C)O)C(=O)NCc1ccc(CC(=O)NCC(=O)N[C@@H](C(=O)N2CCC[C@@H]2C(=O)N[C@H](CCCNC(=N)N)C(=O)N[C@@H](C)C(=O)NCc2ccc(CC(=O)N3CCC[C@@H]3C(=O)N[C@H](CO)C(=O)N[C@H](CCC(=O)O)C(=O)N[C@H](CCCNC(=N)N)C(=O)NCC(=O)NCc3ccc(CC(=O)N4CCC[C@@H]4C(=O)N[C@H](CCCCN)C(=O)N[C@H](Cc4ccc(O)cc4)C(=O)N[C@H](CCCNC(=N)N)C(=O)N[C@@H](Cc4ccccc4)C(=O)NCc4ccc(CC(=O)N[C@H](CCCNC(=N)N)C(=O)N[C@H](Cc5ccc(O)cc5)C(=O)N[C@@H](C(=O)N[C@H](CCC(=O)O)C(=O)N[C@@H](C)C(=O)NCc5ccc(CC(=O)NCC(=O)N[C@H](Cc6c[nH]c7ccccc67)C(=O)N[C@H](Cc6c[nH]cn6)C(=O)N[C@H](CCCNC(=N)N)C(=O)N[C@@H](C)C(=O)NCc6ccc(CC(N)=O)cc6)cc5)[C@H](C)O)cc4)cc3)cc2)C(C)C)cc1 [KRAS-1-10] (5FAM-[dE][dP][dT][dE]L[X1]G[dV][dP][dR]A[X1][dP][dS][dE][dR]G[X1][dP][dK][dY][dR]F[X1][dR][dY][dT][dE]A[X1]G[dW][dH][dR]A-{NHCH2C6H4(4-CH2CONH2)})
Kd (K-Ras): 60 nM
